How the values were obtained:
HaCaT cells = experiment: In vitro scratch analysis in HaCaT cells; type: cell-based, human; settings: scratch model with 15-PGDH and its coenzyme NAD+
Description: For in vitro scratch analysis (Hintermann et al., 2001; Koivisto et al., 2006), HaCaT cells were seeded 3×10^5 cells per well on 6-well plates and cultured until 80% confluence was reached. Then, culture medium was replaced with serum-free medium containing mitomycin (10 μg/mL) and cells were cultured for 2 hours to block the proliferation of wound and washed with PBS. Scratch was made by sterilized 200 μL pipette tip and washed again.
The process of wound healing was observed by taking photographs of identical spots before and after the culture. Experiment was repeated for 3 times and representative photos were illustrated Immediately after the formation of scratch, photos of scratch were taken by microscope (×100) and 48 hours after the culture, photos were taken once more. By measuring the distance between scratch, the % recovery rate by drug was calculated in comparison with the negative control group.
In the meantime, in order to investigate whether PGE2 is directly involved in scratch healing, 15-PGDH and its coenzyme NAD^+ were treated in identical model system.

ICR mice [1] = experiment: In vivo wound healing, 5 mm circular wound, H&E tissue staining; settings: TGF-β1 20 ng/day
Description: To confirm the wound healing effect of Dendropanax morbifera extract of the present invention in vivo, following experiments were conducted. First, 7 week old male ICR mice (average weight: 25 g) were purchased from Damul Science Co. (Daejuen, Korea) and after a week of adjustment period, they were anesthetized by administering anesthetic (zoletil, 50 μL) into the abdominal cavity and then circular wound with diameter of 5 mm was made under anesthesia. From a day later, being divided into 4 groups, wound of each group was treated with drugs daily basis as below while 10 μL of drugs were applied to wound of each group and the degree of healing was observed by tissue staining Animal experiments conducted in the examples were approved by Chonnam National University animal experiment ethics committee (IRB) (CNU IACUC-YB-R-2012-12) and tissue staining was done by fragmenting the wounded tissue of mice on which the above experiment of 4 groups was conducted and stained with hemtoxylin-Eosin (H & E). The distance of recovered wound was measured by visualizing stained tissues with microscope (40×). Moreover, the wound healing efficiency was calculated based on the distance measured.

ICR mice [2] = experiment: In vivo gastric ulcer prevention, HCl/ethanol-induced gastric lesion; settings: oral, 24 h and 1 h before HCl/ethanol; DMHE 0.87 mg/kg, sucralfate 100 mg/kg
Source text: To investigate the prevention effect of Dendropanax morbifera for gastric ulcer, […] male ICR mice with weight of 20±2 g were used. The mice above were purchased from Damul Science Co. (Daejuen, Korea). Animal experiments conducted in the examples were approved by Chonnam National University animal experiment ethics committee (IRB) (CNU IACUC-YB-R-2012-11).
The above-described animals were divided into 3 groups (for each group, n=7) that comprise normal group (vehicle 0.5% CMC (carboxyl methylcellulose)), positive control group (sucralfate, 100 mg/kg in 0.5% CMC) and experimental group (Dendropanax morbifera leaf hexane extract in 0.5% CMC).
Balanced diet was provided to the animals and they were allowed to drink water freely. One week later, animals were forced to fast for all day long. 24 hours before inducing the […] bleeding, Dendropanax morbifera hexane extract (DMHE, dissolved in 0.5% CMC) was administered with oral dose of 0.87 mg/kg and administered once more 1 hour before HCl/ethanol was applied. It was conducted for the negative (0.5% CMC, 1 mL/kg) and positive control group (sucralfate, 100 mg/kg in 0.5% CMC) simultaneously. By administering HCl/ethanol mixture containing 150 mM HCl in 60% ethanol into stomach, gastric lesion of hemorrhage was induced. […]

Substance	wound healing effect on treatment with 15-PGDH and NAD+ (HaCaT cells)	distance between wound (ICR mice [1]; 4th day after drug treatment)	% of healing compared to initial wound diameter (5 mm) (ICR mice [1]; 4th day)	gastric lesion (bleeding, edema) (ICR mice [2])
TGF-β1: transforming growth factor β1, a cytokine; positive control for wound healing	completely vanished	1.72 mm	65.6%	
sucralfate				have not shown any type of lesion

— US9649350B2, “Use for dendropanax morbifera extract for adjusting 15- hydroxyprostaglandin dehydrogenase and PGE 2 activity” (INDUSTRY-ACADEMIC COOPERATION FOUNDATION, CHOSUN UNIVERSITY, priority 2012, dated 2017)
